The values that follow come from US9789086B1, “N-(5-arylamido-2-methylphenyl)-5-methylisooxazole-4-carboxamide deravative, pharmaceutical acceptable salt thereof, method for preparation therof and FMS kinase inhibitor comprising the same as anactive ingredient” (Industry-University Cooperation Foundation Hanyang …, priority 2014, dated 2017).

SMILES strings stand for the structures.

One test has as its target T1, FMS (Homo sapiens, UniProt P07333).
T1 construct: purchased Reaction Biology Corporation
The experiment in a line: FMS inhibitory activity (Reaction Biology Kinase profiling, IC50 profiler express). In kind it is biochemical. On the procedure: The inhibitory activity of FMS at a concentration of 10 μM of the compound prepared in Example 5 was measured using Kinase profiling services (IC 50 profiler express) offered by Reaction Biology Corporation.

The next test has as its system U937 cell line. The experiment in a line: U937 cell line proliferation inhibitory activity (MTT assay). In kind it is cell-based. Conditions: Homo sapiens, U-937, U937 cells. The protocol: (§1) In order to measure cell viability, MTT [3-(4,5-dimethylthiazole-2-yl)-2,5-diphenyltetrazolium bromide] activity assay method (Thiazolyl Blue Tetrazolium Bromide, Sigma Aldrich) was used. Cell lines were cultured in 96-well plates for 24 hours and treated with the compounds of Examples previously prepared. For the compound treatment, 10 mM stocks were prepared, serially diluted in DMSO and added by 0.5 μL at 8 points (final concentration of 0.5%). The cell lines in plates treated with the compounds was cultured for 48 hours, then 15 μL of dye was added to each well and cultured for 4 hours. Then, 100 μL of DMSO solvent was added to each well, and the formed solid was dissolved to measure the absorbance. The absorbance was read at a wavelength of 570 nm using EnVision 2103, and the GI 50 value was calculated using GraphPad Prism 4.0 software, and the results are shown in Table 1 below.
U937 cell lines were purchased from ATCC and cultured in a RPMI culture medium (containing 10% FBS, 1% penicillin/streptomycin and 25 mM HEPES) in the presence of 5% CO2 at 37° C. The cell line proliferation inhibitory activity for Examples previously prepared was measured using the same MTT activity assay method as the A375P cell line proliferation inhibitory activity assay in Experimental Example 1.

In the next test the test system is A375P cell line. The experiment in a line: A375P cell line proliferation inhibitory activity (MTT assay). In kind it is cell-based. To be noted: A375P cells, 48 hours treatment. On the procedure: A375P cell lines were purchased from ATCC and cultured in a DMEM culture medium (containing 10% FBS and 1% penicillin/streptomycin) in the presence of 5% CO2 at 37° C. The cultured A375P cell lines were taken from culture substrate with 0.05% trypsin-0.02% EDTA and plated at a density of 5×10^3 cells per well in 96-well plates.
as §1
(Tetrazolium dyes change colour on reduction, which living cells bring about.)

T1 sequence (P07333 20-972): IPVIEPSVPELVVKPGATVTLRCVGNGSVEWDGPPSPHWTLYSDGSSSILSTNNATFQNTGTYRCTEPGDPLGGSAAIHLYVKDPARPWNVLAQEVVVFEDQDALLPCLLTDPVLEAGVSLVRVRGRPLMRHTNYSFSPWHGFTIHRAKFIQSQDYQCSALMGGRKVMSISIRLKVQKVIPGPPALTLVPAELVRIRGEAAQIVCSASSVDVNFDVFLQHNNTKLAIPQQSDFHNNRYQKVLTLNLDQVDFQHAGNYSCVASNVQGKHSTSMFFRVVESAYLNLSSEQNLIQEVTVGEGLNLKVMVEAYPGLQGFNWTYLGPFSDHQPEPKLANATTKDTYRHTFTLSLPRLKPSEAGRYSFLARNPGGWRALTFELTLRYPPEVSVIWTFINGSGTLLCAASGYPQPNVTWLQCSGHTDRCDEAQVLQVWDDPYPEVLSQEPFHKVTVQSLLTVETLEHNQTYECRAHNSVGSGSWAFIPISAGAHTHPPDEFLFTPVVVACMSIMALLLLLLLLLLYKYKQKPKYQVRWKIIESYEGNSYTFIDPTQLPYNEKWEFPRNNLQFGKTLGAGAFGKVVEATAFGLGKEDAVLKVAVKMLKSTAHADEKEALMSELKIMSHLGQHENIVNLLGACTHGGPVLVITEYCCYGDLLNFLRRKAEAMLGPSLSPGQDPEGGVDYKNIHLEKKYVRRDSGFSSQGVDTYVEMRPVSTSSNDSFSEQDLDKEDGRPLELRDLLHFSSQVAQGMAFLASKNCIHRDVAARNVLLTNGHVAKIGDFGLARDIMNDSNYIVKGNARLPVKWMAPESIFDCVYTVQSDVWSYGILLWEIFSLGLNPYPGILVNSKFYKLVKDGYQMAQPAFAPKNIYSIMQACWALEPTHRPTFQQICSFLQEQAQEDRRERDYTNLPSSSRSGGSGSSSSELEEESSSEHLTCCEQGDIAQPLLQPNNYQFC

As for `Cc1ccc(NC(=O)c2ccc(Cl)c(C(F)(F)F)c2)cc1NC(=O)c1cnoc1C` [Example 5, N-(5-(4-chloro-3-(trifluoromethyl)benzamido)-2-methylphenyl)-5-methylisoxazole-4-carboxamide], at FMS (compound concentration 10 μM, read-out: FMS activity inhibited), the inhibition at 10 µM worked out at 98.7%. For the same molecule, the IC50 on FMS (sequentially decreasing concentration, read-out: concentration that inhibits FMS activity by 50% (IC50)) stood at 0.00995 µM. The GI50 in the test with U937 cell line and in the test with A375P cell line was 10 to 30 µM in each case.

`CC(=O)N1CCC(C(=O)Nc2ccc(C)c(NC(=O)c3cnoc3C)c2)CC1` [Example 15, N-(5-(1-acetylpiperidine-4-carboxamido)-2-methylphenyl)-5-methylisoxazole-4-carboxamide]: the GI50 in the test with U937 cell line and in the test with A375P cell line was 10 to 30 µM throughout.

For the molecule `Cc1ccc(NC(=O)c2cnc3ccccc3c2)cc1NC(=O)c1cnoc1C` [Example 27, 5-methyl-N-(2-methyl-5-(quinoline-3-carboxamido)phenyl)isoxazole-4-carboxamide], the GI50 with U937 cell line and in the test on A375P cell line was 10 to 30 µM throughout.

For `Cc1ccc(NC(=O)C2(C)CCc3c(C)c(O)c(C)c(C)c3O2)cc1NC(=O)c1cnoc1C` (stereo not shown) [Example 14, N-(5-(6-hydroxy-2,5,7,8-tetramethylchroman-2-carboxamido)-2-methylphenyl)-5-methylisoxazole-4-carboxamide], the GI50 with U937 cell line and with A375P cell line was 10 to 30 µM throughout.

Consider `Cc1ccc(NC(=O)c2ccccc2Sc2ccccc2C#N)cc1NC(=O)c1cnoc1C` [Example 21, N-(5-(2-(2-cyanophenylthio)benzamido)-2-methylphenyl)-5-methylisoxazole-4-carboxamide], for which the GI50 with U937 cell line and with A375P cell line was 10 to 30 µM each time.

As to `Cc1cn(-c2cc(C(=O)Nc3ccc(C)c(NC(=O)c4cnoc4C)c3)cc(C(F)(F)F)c2)cn1` [Example 11, 5-methyl-N-(2-methyl-5-(3-(4-methyl-1H-imidazol-1-yl)-5-(trifluoromethyl)benzamido)phenyl)isoxazole-4-carboxamide], the results for the GI50 with U937 cell line and in the test with A375P cell line were < 1 µM and 10 to 30 µM, respectively.

As for `Cc1cc(C)cc(C(=O)Nc2ccc(C)c(NC(=O)c3cnoc3C)c2)c1` [Example 24, N-(5-(3,5-dimethylbenzamido)-2-methylphenyl)-5-methylisoxazole-4-carboxamide], the values for the GI50 in the test with U937 cell line and in the test on A375P cell line were 1 to 10 µM and 10 to 30 µM, respectively.

For `Cc1cc(NC(=O)c2cc(N3CCN(C)CC3)cc(C(F)(F)F)c2)ccc1NC(=O)c1cnoc1C` [Example 2, 5-methyl-N-(2-methyl-4-(3-(4-methylpiperazin-1-yl)-5-(trifluoromethyl)benzamido)phenyl)isoxazole-4-carboxamide], the GI50 with U937 cell line and in the test on A375P cell line was 10 to 30 µM throughout.

With `Cc1ccc(NC(=O)Nc2cc(Cl)cc(Cl)c2)cc1NC(=O)c1cnoc1C` [Example 33, N-(5-(3-(3,5-dichlorophenyl)ureido)-2-methylphenyl)-5-methylisoxazole-4-carboxamide], the GI50 in the test with U937 cell line and in the test with A375P cell line was 10 to 30 µM in each case.

For the molecule `Cc1ccc(NC(=O)Cc2ccccc2F)cc1NC(=O)c1cnoc1C` [Example 8, N-(5-(2-(2-fluorophenyl)acetamido)-2-methylphenyl)-5-methylisoxazole-4-carboxamide], the GI50 in the test on U937 cell line and in the test on A375P cell line was 10 to 30 µM throughout.

Regarding `Cc1ccc(NC(=O)C2Cc3ccccc3N2)cc1NC(=O)c1cnoc1C` (stereo not shown) [Example 19, N-(5-(indoline-2-carboxamido)-2-methylphenyl)-5-methylisoxazole-4-carboxamide], the GI50 with U937 cell line and in the test with A375P cell line was 10 to 30 µM throughout.

Turning to `Cc1cc(NC(=O)Nc2cc(Cl)cc(Cl)c2)ccc1NC(=O)c1cnoc1C` [Example 41, N-(4-(3-(3,5-dichlorophenyl)ureido)-2-methylphenyl)-5-methylisoxazole-4-carboxamide], the GI50 with U937 cell line and in the test with A375P cell line was 10 to 30 µM each time.

Consider `Cc1ccc(NC(=O)c2cc(-n3ccnc3C)cc(C(F)(F)F)c2)cc1NC(=O)c1cnoc1C` [Example 9, 5-methyl-N-(2-methyl-5-(3-(2-methyl-1H-imidazol-1-yl)-5-(trifluoromethyl)benzamido)phenyl)isoxazole-4-carboxamide], for which the GI50 is < 1 µM with U937 cell line and 10 to 30 µM in the test with A375P cell line.

In the case of `Cc1ccc(NC(=O)c2cccc(Cl)c2)cc1NC(=O)c1cnoc1C` [Example 6, N-(5-(3-chlorobenzamido)-2-methylphenyl)-5-methylisoxazole-4-carboxamide], the GI50 with U937 cell line and in the test with A375P cell line was 10 to 30 µM each time.

For `Cc1ccc(NC(=O)Nc2ccc(Cl)c(C(F)(F)F)c2)cc1NC(=O)c1cnoc1C` [Example 30, N-(5-(3-(4-chloro-3-(trifluoromethyl)phenyl)ureido)-2-methylphenyl)-5-methylisoxazole-4-carboxamide], the GI50 with U937 cell line and in the test on A375P cell line was 10 to 30 µM throughout.

On to `Cc1cc(NC(=O)Nc2ccc(Cl)c(Cl)c2)ccc1NC(=O)c1cnoc1C` [Example 40, N-(4-(3-(3,4-dichlorophenyl)ureido)-2-methylphenyl)-5-methylisoxazole-4-carboxamide], for which the results for the GI50 with U937 cell line and in the test with A375P cell line were 10 to 30 µM and 1 to 10 µM, respectively.

With `Cc1cc(NC(=O)Nc2ccc(Cl)c(C(F)(F)F)c2)ccc1NC(=O)c1cnoc1C` [Example 35, N-(4-(3-(4-chloro-3-(trifluoromethyl)phenyl)ureido)-2-methylphenyl)-5-methylisoxazole-4-carboxamide], the GI50 in the test with U937 cell line and in the test with A375P cell line was 10 to 30 µM throughout.

As to `Cc1ccc(NC(=O)c2cc(N3CCN(C)CC3)cc(C(F)(F)F)c2)cc1NC(=O)c1cnoc1C` [Example 3, 5-methyl-N-(2-methyl-5-(3-(4-methylpiperazin-1-yl)-5-(trifluoromethyl)benzamido)phenyl)isoxazole-4-carboxamide], the GI50 with U937 cell line was < 1 µM; in the test with A375P cell line it was 10 to 30 µM.

For `Cc1ccc(NC(=O)c2ccc(N3CCOCC3)c(C(F)(F)F)c2)cc1NC(=O)c1cnoc1C` [Example 4, 5-methyl-N-(2-methyl-5-(4-morpholino-3-(trifluoromethyl)benzamido)phenyl)isoxazole-4-carboxamide], the GI50 was < 1 µM with U937 cell line and 10 to 30 µM in the test with A375P cell line.

What is called GI50 is the concentration that inhibits growth by half. Read a low GI50 as greater sensitivity of the cells.
